Results: publication PMC5876388 (Scientific Reports, 2018)
Entries after “also recorded” stand apart in the source; their conditions may differ. Where two headings read alike, the source gives them in different places.

Legend:
[1] = test system: Notch signaling (LS174T Notch cells); test: Notch signaling transcriptional activity assay (luciferase reporter, T-REx system); assay type: cell-based; details: for IC50: read-out: IC50 of Notch signal inhibitory activity (luciferase)
Description: We constructed a cell-based reporter assay with the T-Rex system to evaluate Notch signaling inhibitory activity. Without doxycycline (Dox), the tetracycline repressor (TetR) inhibits the expression of N-terminally FLAG-tagged mouse Notch1(1704–2531), which is 40 aa longer than NICD at the N-terminus. In the presence of Dox, Dox binds to the TetR to release the inhibition of expression of Notch1(1704–2531). Cleavage of Notch1(1704–2531) by γ-secretase generates NICD, which then translocates to the nucleus and forms a heterotrimer with RBP-J driving luciferase transcription (Fig. 2). This assay cells (LS174T Notch cells) was stably incorporated with pGL4.20 luciferase plasmid which has 12 × RBP-J binding site (12 copies of […])-β-globin promoter. Cell viability was measured using a fluorometric microculture cytotoxicity assay. […] The composition of the G. speciosa MeOH extract was partitioned successively with hexane, EtOAc, nBuOH, and water.
Figure 2 The T-REx assay system. Without Dox, expression of Notch1(1704–2531) is suppressed by TetR. The addition of Dox inactivates TetR to initiate expression of Notch1(1704–2531), which is then cleaved by endogenous γ-secretase to form NICD. NICD then translocates to the nucleus and forms a heterotrimer with RBP-J and MAML that binds to a 12× RBP-J binding site to drive luciferase expression. Luciferase activity was detected as Notch signaling pathway activity. Dox: doxycycline, TetR: tetracycline repressor, Luc.: luciferase.
Assay cells (LS174T Notch cells: 2 × 10^4 cells/well) were incubated in a 96-well white plate at 37 °C for 12 h. After incubation, 50 ng/mL Dox was added to each well to induce expression of exogenous Notch1(1704–2531) protein. After incubation at 37 °C for 12 h, the medium was changed to Dox-free medium containing individual samples. Luciferase activity was measured after treatment at 37 °C for 12 h. Cell viability was evaluated by the FMCA method at the same time. These assays were performed in 0.1% DMSO (n = 3). Error bars represent SD.
In a 96-well white plate, Cells (LS174T Notch cells; 2 × 10^4 cells per well) were cultured at 37 °C for 12 h. To express Notch1(1704–2531) protein in the cells, doxycycline (50 ng/mL) was added to each well, and cells were cultured at 37 °C for 12 h. Medium was changed to doxycycline-free medium containing each sample, then cells were incubated with at 37 °C for 12 h. A microplate luminometer (Thermo Fisher Scientific Inc., Waltham, USA) and the Bright-Glo™ Luciferase Assay System (Promega Co., Madison, USA) were used for measurement of Luciferase activity. Fluorometric Microculture Cytotoxicity Assay (FMCA) was used for measurement of cell viability of the sample-treated cells. After incubation of assay cells (2×10^4 cells per well) in a 96-well black plate at 37 °C for 24 h, samples addition was performed at the same time as the luciferase assay. The assay cells were cultures at 37 °C for 12 h. A fluorescence plate reader (Thermo Fisher Scientific Inc., Waltham, USA) was used for determination of cell viability by FMCA.

[2] = test system: HPB-ALL cells; test: Cytotoxicity test, AlamarBlue
Experimental: HPB-ALL cells (1 × 10^4 cells per well) were incubated in 96-well black plates at 37 °C for 72 h. Media also contained different concentrations of compound. After incubation, AlamarBlue was added 10 μL per well. After incubation for 4 h, using a fluorescence plate reader, fluorescence was measured and cell viability was determined. Data are presented as the mean with SD from three independent experiments. […] The effect on protein expression was analyzed by Western blotting. β-Actin was used as internal control. (D,E) Relative protein levels of NICD and HES1 analyzed by densitometry. Data are presented as the mean with SD from three independent experiments. *P < 0.05 is considered statistically significant. P values were analyzed by Student’s t test.
HPB-ALL cells (1 × 10^4 cells per well) were incubated in 96-well black plates in 100 μL of RPMI-1640 medium with 10% FBS, Streptomycin (100 μg/mL) and Penicillin (100 unit/mL). Media also contained different concentrations of compound. Cells were incubated at 37 °C for 72 h. After incubation, AlamarBlue (00–025, DAL1025; Thermo Fisher Scientific Inc., Waltham, USA) was added 10 μL per well. After incubation for 4 h, using a fluorescence plate reader (Thermo Fisher Scientific Inc., Waltham, USA), fluorescence was measured and cell viability was determined.

[3] = LS174T Notch cells, 12 h treatment after Dox induction
[4] = Homo sapiens, LS174T Notch cells, 12 h treatment after Dox induction

IC50 [1, 4] | SMILES | IC50 of Notch signal inhibitory activity (luciferase) [1, 3] | other results
7.5 µM | COc1cc2oc3cc(O)c(OC)c(CC=C(C)C)c3c(=O)c2c(O)c1CC=C(C)C [Compound 7, β-mangostin] | – | –
> 40 µM | COc1cc2oc3cc(O)c(CC=C(C)C)c(O)c3c(=O)c2c(CC=C(C)C)c1O [Compound 8, 6-methoxy-γ-mangostin] | weak activity or were inactive | –
8 µM | COc1c(O)cc2oc3cc(O)c(CC=C(C)C)c(O)c3c(=O)c2c1CC=C(C)C [Compound 1, α-mangostin] | – | –
10.5 µM | CC(C)=CCC/C(C)=C/Cc1c(O)c(O)cc2oc3cc(O)c(CC=C(C)C)c(O)c3c(=O)c12 [Compound 4, norcowanin] | – | –
15 µM | COc1cc2oc3cc(O)c(CC=C(C)C)c(O)c3c(=O)c2c(CC=C(C)C)c1OC [Compound 10, cowaxanthone B] | – | –

The next lines start with the molecule.

SMILES | IC50 [1, 4] | IC50 of Notch signal inhibitory activity (luciferase) [1, 3] | other results
COc1cc2c(=O)c3c(O)c(C/C=C(\C)CCC=C(C)C)c(O)cc3oc2cc1O [Compound 6, cowaxanthone] | – | weak activity or were inactive; also recorded: inactive | –
C=C(C)c1cc2c(O)c3c(=O)c4c(CC=C(C)C)c(OC)c(O)cc4oc3cc2o1 [Compound 12] | – | weak activity or were inactive; also recorded: inactive | –
C[C@H](NC(=O)Cc1cc(F)cc(F)c1)C(=O)N[C@H](C(=O)OC(C)(C)C)c1ccccc1 [DAPT, N-[N-(3,5-difluorophenacetyl)-L-alanyl]-S-phenylglycine t-butyl ester, reference compound] | – | – | IC50 [1, 3]: 0.12 µM; IC50 [2]: > 20 µM
COc1c(O)cc2oc3cc4c(c(O)c3c(=O)c2c1CC=C(C)C)C=CC(C)(C)O4 [Compound 9, 9-hydroxycalabaxanthone] | 19.6 µM | – | –
COc1c(O)cc2oc3cc(O)cc(O)c3c(=O)c2c1C/C=C(\C)CCC=C(C)C [Compound 5, rubraxanthone] | > 40 µM | weak activity or were inactive | –
COc1c(O)cc2oc3cc4c(c(O)c3c(=O)c2c1C/C=C(\C)CCC=C(C)C)C=CC(C)(C)O4 [Compound 11, fuscaxanthone A] | 11.7 µM | – | –
COc1c(O)cc2oc3cc(O)c(C/C=C(/C)CO)c(O)c3c(=O)c2c1C/C=C(\C)CCC=C(C)C [Compound 3, cowanol] | – | – | IC50 ([1]; Homo sapiens, LS174T, 12 h): 7.3 µM
